Format in all cases: biochemical
One assay addresses CDK4-CYCLIND1 (Homo sapiens, UniProt P11802). The assay is described as follows: Microfluidic LabChip inhibition assay, CDK4-CYCLIND1. The following applies: ATP 200 μM, second values in parentheses on the line below, not explained, read-out: CDK4 CyclinD1 IC50. As for the experimental part:
(§1) The reaction was terminated by the addition of EDTA. The plates were analyzed using a Caliper LabChip 3000.
(§2) Additional inhibition assays were performed as described above.

The target of the next assay is CDK1/B (Homo sapiens, UniProt P06493). The assay is described as follows: Inhibition assay, CDK1/B. Particulars: read-out: CDK1/B IC50. The procedure:
as §1, §2

In a further assay the target is CDK2-CYCLINA (Homo sapiens, UniProt P24941). Kind of assay: Microfluidic LabChip inhibition assay, CDK2-CYCLINA. The following applies: ATP 50 μM. As for the experimental part: as §1, §2
Another assay concerns the target CDK7 CyclinH (Homo sapiens, UniProt P50613). The assay is described as follows: Inhibition assay, CDK7 CyclinH. The procedure: as §1, §2
The target in a further assay is CDK9-CYCLINT1 (Homo sapiens, UniProt P50750). The assay is described as follows: Microfluidic LabChip inhibition assay, CDK9-CYCLINT1. The following applies: ATP 10 μM. As for the experimental part:
as §1, §2

Each structure is given as a SMILES string. Where two headings read alike, the source gives them in different places. Some results are limits rather than exact numbers.

Chain of CDK9-CYCLINT1 (P50750 whole entry): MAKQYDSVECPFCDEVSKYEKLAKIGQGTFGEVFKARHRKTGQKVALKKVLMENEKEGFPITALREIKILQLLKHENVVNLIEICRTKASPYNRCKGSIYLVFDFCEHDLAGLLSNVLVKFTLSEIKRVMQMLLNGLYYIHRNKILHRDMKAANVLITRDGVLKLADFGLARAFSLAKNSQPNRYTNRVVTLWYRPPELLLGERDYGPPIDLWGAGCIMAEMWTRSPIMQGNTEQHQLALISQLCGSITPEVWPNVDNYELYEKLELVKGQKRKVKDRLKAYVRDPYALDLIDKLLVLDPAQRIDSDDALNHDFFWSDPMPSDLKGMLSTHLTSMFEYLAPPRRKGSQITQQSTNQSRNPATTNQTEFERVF
Chain of CDK9-CYCLINT1 (O60563 whole entry partner): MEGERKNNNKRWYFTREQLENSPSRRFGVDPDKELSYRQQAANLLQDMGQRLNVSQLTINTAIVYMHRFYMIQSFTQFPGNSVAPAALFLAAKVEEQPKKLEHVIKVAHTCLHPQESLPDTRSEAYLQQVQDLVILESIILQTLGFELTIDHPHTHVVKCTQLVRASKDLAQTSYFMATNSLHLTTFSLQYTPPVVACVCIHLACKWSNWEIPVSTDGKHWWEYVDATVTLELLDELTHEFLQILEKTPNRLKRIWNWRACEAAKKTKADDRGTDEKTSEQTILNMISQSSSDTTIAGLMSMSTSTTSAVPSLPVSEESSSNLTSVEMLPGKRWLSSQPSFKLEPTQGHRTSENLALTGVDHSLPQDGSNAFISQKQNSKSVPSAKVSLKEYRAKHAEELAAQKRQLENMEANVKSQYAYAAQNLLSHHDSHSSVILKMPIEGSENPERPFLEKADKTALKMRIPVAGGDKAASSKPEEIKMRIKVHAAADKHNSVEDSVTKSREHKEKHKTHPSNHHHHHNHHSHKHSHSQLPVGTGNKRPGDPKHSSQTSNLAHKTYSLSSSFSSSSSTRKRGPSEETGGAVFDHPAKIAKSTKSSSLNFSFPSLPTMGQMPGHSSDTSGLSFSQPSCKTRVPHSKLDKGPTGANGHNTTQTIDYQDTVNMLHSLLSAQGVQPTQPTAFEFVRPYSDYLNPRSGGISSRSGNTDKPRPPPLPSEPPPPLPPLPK
Chain of CDK7 CyclinH (P50613 whole entry): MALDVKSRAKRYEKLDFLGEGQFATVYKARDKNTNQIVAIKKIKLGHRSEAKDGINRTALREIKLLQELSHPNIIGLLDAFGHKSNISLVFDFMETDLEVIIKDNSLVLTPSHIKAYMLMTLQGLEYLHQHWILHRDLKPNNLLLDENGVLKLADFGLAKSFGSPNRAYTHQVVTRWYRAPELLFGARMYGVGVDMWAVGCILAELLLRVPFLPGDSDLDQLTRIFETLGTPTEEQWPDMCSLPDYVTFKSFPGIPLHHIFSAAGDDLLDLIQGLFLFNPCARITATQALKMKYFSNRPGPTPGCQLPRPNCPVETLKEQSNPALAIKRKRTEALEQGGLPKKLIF
Chain of CDK7 CyclinH (P51946 whole entry partner): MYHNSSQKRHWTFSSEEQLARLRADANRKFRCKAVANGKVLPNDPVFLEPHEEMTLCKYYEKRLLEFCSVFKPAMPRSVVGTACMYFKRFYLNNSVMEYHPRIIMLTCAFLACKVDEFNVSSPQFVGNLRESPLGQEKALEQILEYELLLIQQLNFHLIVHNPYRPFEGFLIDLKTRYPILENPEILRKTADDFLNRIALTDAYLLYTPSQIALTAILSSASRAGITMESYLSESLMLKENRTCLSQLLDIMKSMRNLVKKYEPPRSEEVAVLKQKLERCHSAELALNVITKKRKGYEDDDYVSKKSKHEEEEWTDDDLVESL
Chain of CDK7 CyclinH (P51948 whole entry partner): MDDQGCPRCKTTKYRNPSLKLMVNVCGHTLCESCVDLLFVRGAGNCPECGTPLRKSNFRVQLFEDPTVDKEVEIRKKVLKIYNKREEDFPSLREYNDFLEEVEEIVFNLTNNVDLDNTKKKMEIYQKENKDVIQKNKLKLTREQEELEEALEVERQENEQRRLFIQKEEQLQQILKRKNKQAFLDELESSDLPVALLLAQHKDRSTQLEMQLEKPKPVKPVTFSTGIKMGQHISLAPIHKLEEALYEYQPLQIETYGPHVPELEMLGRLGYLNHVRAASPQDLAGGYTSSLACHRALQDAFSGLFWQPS
Chain of CDK1/B (P06493 whole entry): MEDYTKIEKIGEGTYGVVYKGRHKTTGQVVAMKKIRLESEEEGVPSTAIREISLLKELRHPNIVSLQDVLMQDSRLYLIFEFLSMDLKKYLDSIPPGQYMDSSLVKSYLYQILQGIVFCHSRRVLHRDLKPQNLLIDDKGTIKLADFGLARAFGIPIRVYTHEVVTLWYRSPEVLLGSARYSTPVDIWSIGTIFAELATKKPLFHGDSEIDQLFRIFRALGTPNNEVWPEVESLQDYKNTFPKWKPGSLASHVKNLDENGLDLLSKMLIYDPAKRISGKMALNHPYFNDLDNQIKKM
Chain of CDK1/B (P14635 whole entry partner): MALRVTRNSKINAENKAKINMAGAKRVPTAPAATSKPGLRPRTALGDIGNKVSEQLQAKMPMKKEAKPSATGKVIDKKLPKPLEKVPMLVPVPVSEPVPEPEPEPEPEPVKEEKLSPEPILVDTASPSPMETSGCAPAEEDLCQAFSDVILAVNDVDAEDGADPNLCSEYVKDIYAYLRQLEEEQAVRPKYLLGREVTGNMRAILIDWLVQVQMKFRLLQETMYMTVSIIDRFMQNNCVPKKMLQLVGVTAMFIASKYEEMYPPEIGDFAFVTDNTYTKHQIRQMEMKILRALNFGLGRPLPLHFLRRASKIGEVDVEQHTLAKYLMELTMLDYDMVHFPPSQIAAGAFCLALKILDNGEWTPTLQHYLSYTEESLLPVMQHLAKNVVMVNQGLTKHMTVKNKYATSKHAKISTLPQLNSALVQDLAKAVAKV
Chain of CDK4-CYCLIND1 (P11802 whole entry): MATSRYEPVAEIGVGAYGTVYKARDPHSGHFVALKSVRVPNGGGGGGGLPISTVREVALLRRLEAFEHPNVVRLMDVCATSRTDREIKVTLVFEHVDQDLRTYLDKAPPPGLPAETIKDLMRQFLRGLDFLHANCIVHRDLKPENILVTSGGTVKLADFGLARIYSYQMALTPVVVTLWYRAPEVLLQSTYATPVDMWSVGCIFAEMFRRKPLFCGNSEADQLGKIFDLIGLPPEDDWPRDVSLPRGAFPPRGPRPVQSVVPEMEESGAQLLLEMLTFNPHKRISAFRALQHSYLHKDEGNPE
Chain of CDK4-CYCLIND1 (P24385 whole entry partner): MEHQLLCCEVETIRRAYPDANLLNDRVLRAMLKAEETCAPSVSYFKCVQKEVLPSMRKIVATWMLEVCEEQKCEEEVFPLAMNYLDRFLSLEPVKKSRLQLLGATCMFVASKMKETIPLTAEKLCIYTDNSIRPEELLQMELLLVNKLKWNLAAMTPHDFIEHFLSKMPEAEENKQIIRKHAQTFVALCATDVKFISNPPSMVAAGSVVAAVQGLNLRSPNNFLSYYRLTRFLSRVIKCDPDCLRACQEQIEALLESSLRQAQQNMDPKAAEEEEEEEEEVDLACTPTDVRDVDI

For `CC(=O)c1c(C)c2cnc(Nc3ccc(N4CCN(C)CC4)cn3)nc2n(C23CC(C2)C3)c1=O` [Compound B93, 6-acetyl-8-(bicyclo[1.1.1]pentan-1-yl)-5-methyl-2-((5-(4-methylpiperazin-1-yl)pyridin-2-yl)amino)pyrido[2,3-d]pyrimidin-7(8H)-one], the IC50 is 48.3 nM on CDK4-CYCLIND1 (Table 3a); 48.3 nM on CDK4-CYCLIND1 (Table 3b); above 10000 nM on CDK1/B (Table 3a); above 10000 nM on CDK1/B (Table 3b); above 10000 nM on CDK2-CYCLINA (Table 3a); above 10000 nM against CDK2-CYCLINA (Table 3b). Further, the IC50 on CDK7 CyclinH (Table 3a) was above 10000 nM; against CDK7 CyclinH (Table 3b) it was above 10000 nM; against CDK9-CYCLINT1 (Table 3a), 1230 nM; at CDK9-CYCLINT1 (Table 3b), 1230 nM.
As to `CN(C)CCOc1ccc(Nc2ncc3cc(C#N)c(=O)n(C45CC(C4)C5)c3n2)nc1` [Compound B149, 8-(bicyclo[1.1.1]pentan-1-yl)-2-((5-(2-(dimethylamino)ethoxy)pyridin-2-yl)amino)-7-oxo-7,8-dihydropyrido[2,3-d]pyrimidine-6-carbonitrile], the IC50 on CDK4-CYCLIND1 (Table 3a) was 505 nM; on CDK4-CYCLIND1 (Table 3b), 505 nM; at CDK1/B (Table 3a), above 10000 nM; at CDK1/B (Table 3b), above 10000 nM; at CDK2-CYCLINA (Table 3a) it was above 10000 nM; on CDK2-CYCLINA (Table 3b), above 10000 nM. Moreover, the IC50 was above 10000 nM against CDK7 CyclinH (Table 3a), above 10000 nM on CDK7 CyclinH (Table 3b), 733 nM on CDK9-CYCLINT1 (Table 3a) and 733 nM against CDK9-CYCLINT1 (Table 3b).

Source of the values: US20220220103A1, “CYCLIN-DEPENDENT KINASE INHIBITORS” (SPV THERAPEUTICS INC., priority 2018, published 2022).
